# Measurements from the supplement of paper PMC10307832.
# Experiments:
# Test in all cases: relative viability (nuclei count vs DMSO), 5 days (fraction); higher = more cells survive
# TPCA-1 + Olaparib = compound: C1=CC(=CC=C1C2=CC(=C(S2)NC(=O)N)C(=O)N)F [TPCA-1] + O=C(c1cc(Cc2n[nH]c(=O)c3ccccc23)ccc1F)N1CCN(C(=O)C2CC2)CC1 [Olaparib] (partner 8 µM)
# In short: (§1)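 Cells from lung cancer lines were seeded into 1536-well plates and, one day later, dosed by pin tool. Treatments were either a single drug or a fixed dose of an anchor drug with five library-drug doses (not always all listed) in √10 steps. After 5 days, nuclei were stained in a one-step fixation (final 0.05% Triton X-100, 1% formaldehyde, 1 ug/ml Hoechst) and counted on 4× images, and relative viability is the treated-to-vehicle nuclei ratio, as the median of duplicate plates.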
# Lestaurtinib + Lapatinib = compound: C[C@]12O[C@H](C[C@]1(O)CO)n1c3ccccc3c3c4c(c5c6ccccc6n2c5c31)CNC4=O [Lestaurtinib] + CS(=O)(=O)CCNCc1ccc(-c2ccc3ncnc(Nc4ccc(OCc5cccc(F)c5)c(Cl)c4)c3c2)o1 [Lapatinib] (partner 2 µM)
# In short: as §1
# [1] = compound: C[C@]12O[C@H](C[C@]1(O)CO)n1c3ccccc3c3c4c(c5c6ccccc6n2c5c31)CNC4=O [Lestaurtinib] + Nc1ncn([C@H]2C[C@H](O)[C@@H](CO)O2)c(=O)n1 [Decitabine] (partner 2 µM)
# In short: as §1
# TPCA-1 + Luminespib = compound: C1=CC(=CC=C1C2=CC(=C(S2)NC(=O)N)C(=O)N)F [TPCA-1] + CCNC(=O)c1noc(-c2cc(C(C)C)c(O)cc2O)c1-c1ccc(CN2CCOCC2)cc1 [Luminespib] (partner 0.01 µM)
# In short: as §1
Cell Line,relative viability (TPCA-1 + Olaparib; first compound 0.04 µM),relative viability (TPCA-1 + Olaparib; first compound 0.1265 µM),relative viability (TPCA-1 + Olaparib; first compound 0.4 µM),relative viability (TPCA-1 + Olaparib; first compound 1.265 µM),relative viability (TPCA-1 + Olaparib; first compound 4 µM),relative viability (Lestaurtinib + Lapatinib; first compound 0.005 µM),relative viability (Lestaurtinib + Lapatinib; first compound 0.01581 µM),relative viability (Lestaurtinib + Lapatinib; first compound 0.05 µM),relative viability (Lestaurtinib + Lapatinib; first compound 0.1581 µM),relative viability (Lestaurtinib + Lapatinib; first compound 0.5 µM),relative viability ([1]; first compound 0.005 µM),relative viability ([1]; first compound 0.01581 µM),relative viability ([1]; first compound 0.05 µM),relative viability ([1]; first compound 0.1581 µM),relative viability ([1]; first compound 0.5 µM),relative viability (TPCA-1 + Luminespib; first compound 0.04 µM),relative viability (TPCA-1 + Luminespib; first compound 0.1265 µM),relative viability (TPCA-1 + Luminespib; first compound 0.4 µM),relative viability (TPCA-1 + Luminespib; first compound 1.265 µM),relative viability (TPCA-1 + Luminespib; first compound 4 µM)
HCC-78,0.917,0.844,0.892,1.01,0.493,0.507,1.03,0.54,0.272,0.289,0.748,0.884,0.712,0.662,0.441,,,,,
HCC-366,,0.304,0.37,0.348,0.239,1.16,1.16,0.79,1,0.0272,0.408,0.343,0.378,0.365,0.222,,,,,
HCC-827,0.678,0.62,0.772,0.609,0.367,0.201,0.197,0.212,0.188,0.192,0.298,0.38,0.331,0.367,0.282,0.675,0.496,0.531,0.598,0.201
HOP-62,0.333,0.552,0.317,0.338,0.14,0.889,1.17,1.02,1.08,0.93,0.171,0.231,0.273,0.323,0.211,0.98,0.924,0.93,0.893,0.812
IA-LM,0.818,0.834,0.846,0.765,0.72,1,1.06,0.91,0.905,0.396,,,,,,,,,,
LC-2-ad,0.689,0.783,0.688,0.745,0.578,1.17,1.07,0.62,0.266,0.19,0.912,0.829,0.755,0.654,0.476,1.13,1.01,0.826,0.908,0.663
LCLC-97TM1,0.301,0.237,0.374,0.346,0.216,1.18,1.18,0.767,0.196,0.163,,0.242,0.207,0.245,0.257,0.877,0.614,0.71,0.541,0.482
LCLC-103H,0.747,0.788,0.782,0.868,0.779,,,,,,0.783,0.79,0.687,0.534,0.703,0.97,0.99,0.852,0.965,0.752
LK-2,0.68,0.371,0.516,0.741,0.335,0.89,1.07,0.64,0.496,0.283,0.281,0.462,0.239,0.224,0.145,0.216,0.188,0.216,0.175,0.167
LOU-NH91,0.885,0.846,0.922,0.94,0.773,0.768,0.721,0.638,0.562,0.404,0.818,0.816,0.804,0.679,0.659,0.346,0.254,0.397,0.255,0.318
LU99A,0.257,0.277,0.293,0.223,0.168,0.839,0.627,0.446,0.38,0.213,0.711,0.84,0.572,0.366,0.276,0.34,0.302,0.241,0.349,0.231
NCI-H441,0.461,0.454,0.53,0.443,0.436,,,,,,0.255,0.124,0.233,0.247,0.253,0.448,0.414,0.386,0.297,0.19
NCI-H522,0.834,0.504,0.642,0.643,0.556,,,,,,0.683,0.71,0.811,0.652,0.537,1.13,0.946,1.22,1.15,0.84
NCI-H1299,0.947,0.963,0.941,0.932,0.939,0.972,1.01,0.893,0.862,0.479,,,,,,,,,,
NCI-H1563,,,,,,1.1,0.947,1.06,1.05,0.776,,,,,,0.522,0.601,0.521,0.532,0.451
NCI-H1623,,,,,,,,,,,,,,,,0.601,0.555,0.54,0.433,0.426
NCI-H1648,0.799,0.81,0.626,1.1,0.933,,,,,,,0.535,,0.762,0.512,,,,,
NCI-H1703,0.443,0.39,0.433,0.398,0.424,1.07,1.09,0.597,0.278,0.123,,,,,,,,,,
NCI-H2228,0.731,0.624,0.789,0.56,0.432,0.892,0.95,0.376,0.281,0.256,,,,,,0.174,0.139,0.124,0.131,0.117
NCI-H2342,0.487,0.351,0.44,0.423,0.325,,,,,,0.713,0.76,0.742,0.722,0.77,0.921,0.66,0.819,0.754,0.694
SW 900,,,0.894,0.935,0.644,,,,,,0.405,0.372,0.451,0.624,0.541,0.179,0.176,0.212,0.201,0.176
